Measured values taken from patent US8680159B2, “Bradykinin 1 receptor modulating compounds” (Gruenenthal GmbH, priority 2010, dated 2014).

biological target: T1, B1R receptor of the rat (CHO K1 cells stably transfected with the B1R gene of the rat) (Rattus norvegicus, UniProt P97583); assay: Functional study on the bradykinin receptor 1 (B1R), Ca2+ fluorescence (Fluo-4) FLIPR/Novostar assay, rB1R cells; type: cell-based; conditions: CHO-K1, 10 μM, read-out: % Inhibition (r-B1R) at 10 μM
T1 construct: expressed in transfected cells; host or cells: CHO K1 cells (Chinese hamster ovary), stably transfected
T1 sequence (P97583 1-337): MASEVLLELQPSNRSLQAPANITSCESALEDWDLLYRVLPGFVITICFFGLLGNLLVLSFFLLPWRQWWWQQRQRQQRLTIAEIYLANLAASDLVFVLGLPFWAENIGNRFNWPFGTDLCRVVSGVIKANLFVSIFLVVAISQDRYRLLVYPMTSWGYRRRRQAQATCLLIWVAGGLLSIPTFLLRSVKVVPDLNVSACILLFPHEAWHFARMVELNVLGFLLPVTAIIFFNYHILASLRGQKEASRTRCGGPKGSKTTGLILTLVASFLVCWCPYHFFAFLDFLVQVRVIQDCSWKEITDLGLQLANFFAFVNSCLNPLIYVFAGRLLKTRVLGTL
Method in brief: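 Test compounds (10 μM) were added first and the Ca2+ rise was scored as % activation against Lys-Des-Arg9-bradykinin (≥50 nM, human) or Des-Arg9-bradykinin (≥1 μM, rat). After 6-20 min, the matching agonist was given at its EC80, and % inhibition relative to maximal achievable inhibition was calculated.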

Compound | inhibition at 10 µM
Cc1cc(N2CCC(N(C)C(=O)c3ccc4c(c3)C(N(C)C(=O)c3c(Cl)cccc3C(F)(F)F)CC4)CC2)cc(C)n1 (stereo not shown) [CC_H-329, 3-[[2-Chloro-6-(trifluoromethyl)-benzoyl]-methyl-amino]-N-[1-(2,6-dimethyl-pyridin-4-yl)-piperidin-4-yl]-N-methyl-2,3-dihydro-1H-indene-5-carboxylic acid amide] | 111%
Cc1cc(N2CCC(N(C)C(=O)c3ccc4c(c3)C(N(C)C(=O)C3CCCCC3)CC4)CC2)cc(C)n1 (stereo not shown) [CC_H-330, 3-(Cyclohexanecarbonyl-methyl-amino)-N-[1-(2,6-dimethyl-pyridin-4-yl)-piperidin-4-yl]-N-methyl-2,3-dihydro-1H-indene-5-carboxylic acid amide] | 111%
Cc1cc(N2CCC(N(C)C(=O)c3ccc4c(c3)C(N(C)C(=O)C3CC3)CC4)CC2)cc(C)n1 (stereo not shown) [CC_H-331, 3-(Cyclopropanecarbonyl-methyl-amino)-N-[1-(2,6-dimethyl-pyridin-4-yl)-piperidin-4-yl]-N-methyl-2,3-dihydro-1H-indene-5-carboxylic acid amide] | 104%
Cc1cc(N2CCC(N(C)C(=O)c3ccc4c(c3)C(N(C)C(=O)CC(C)(C)C)CC4)CC2)cc(C)n1 (stereo not shown) [CC_H-332, 3-(3,3-Dimethyl-butanoyl-methyl-amino)-N-[1-(2,6-dimethyl-pyridin-4-yl)-piperidin-4-yl]-N-methyl-2,3-dihydro-1H-indene-5-carboxylic acid amide] | 111%
COCC(=O)N(C)C1CCc2ccc(C(=O)N(C)C3CCN(c4cc(C)nc(C)c4)CC3)cc21 (stereo not shown) [CC_H-333, N-[1-(2,6-Dimethyl-pyridin-4-yl)-piperidin-4-yl]-3-[(2-methoxy-acetyl)-methyl-amino]-N-methyl-2,3-dihydro-1H-indene-5-carboxylic acid amide] | 84%
Cc1cc(N2CCC(N(C)C(=O)c3ccc4c(c3)C(N(C)S(=O)(=O)c3c(C)cccc3Cl)CC4)CC2)cc(C)n1 (stereo not shown) [CC_H-335, 3-[[(2-Chloro-6-methyl-phenyl)sulfonyl]-methyl-amino]-N-[1-(2,6-dimethyl-pyridin-4-yl)-piperidin-4-yl]-N-methyl-2,3-dihydro-1H-indene-5-carboxylic acid amide] | 110%
Cc1cc(N2CCC(N(C)C(=O)c3ccc4c(c3)C(N(C)C(=O)Nc3ccccc3Cl)CC4)CC2)cc(C)n1 (stereo not shown) [CC_H-336, 3-[[(2-Chlorophenyl)-carbamoyl]-methyl-amino]-N-[1-(2,6-dimethyl-pyridin-4-yl)-piperidin-4-yl]-N-methyl-2,3-dihydro-1H-indene-5-carboxylic acid amide] | 97%

The next lines start with the values.

inhibition at 10 µM | Compound
110% | Cc1cc(N2CCC(N(C)C(=O)c3ccc4c(c3)C(N(C)C(=O)Nc3cccc(Cl)c3)CC4)CC2)cc(C)n1 (stereo not shown) [CC_H-337, 3-[[(3-Chlorophenyl)-carbamoyl]-methyl-amino]-N-[1-(2,6-dimethyl-pyridin-4-yl)-piperidin-4-yl]-N-methyl-2,3-dihydro-1H-indene-5-carboxylic acid amide]
92% | Cc1cc(N2CCC(N(C)C(=O)c3ccc4c(c3)C(N(C)C(=O)Nc3cccc(Cl)c3Cl)CC4)CC2)cc(C)n1 (stereo not shown) [CC_H-339, 3-[[(2,3-Dichloro-phenyl)-carbamoyl]-methyl-amino]-N-[1-(2,6-dimethyl-pyridin-4-yl)-piperidin-4-yl]-N-methyl-2,3-dihydro-1H-indene-5-carboxylic acid amide]
95% | Cc1cc(N2CCC(N(C)C(=O)c3ccc4c(c3)C(N(C)C(=O)Nc3cc(Cl)cc(Cl)c3)CC4)CC2)cc(C)n1 (stereo not shown) [CC_H-341, 3-[[(3,5-Dichloro-phenyl)-carbamoyl]-methyl-amino]-N-[1-(2,6-dimethyl-pyridin-4-yl)-piperidin-4-yl]-N-methyl-2,3-dihydro-1H-indene-5-carboxylic acid amide]
